# Target: memapsin 2 (Homo sapiens, UniProt P56817)
# Test: Inhibition of memapsin 2 beta-secretase activity (fluorogenic substrate FS-2)
# Type: biochemical
# Conditions: memapsin 2, pH 4, 37° C., 20 minutes pre-incubation; read-out: M2Ki
# How it was run: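 Kinetic fluorogenic assay: hydrolysis of the MCA/DNP-labelled APP Swedish-variant peptide FS-2 monitored as fluorescence rise at 37° C, pH 4, after 20 min enzyme–compound preincubation. Relative rates fitted with a tight-binding inhibitor model.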
# memapsin 2, sequence (P56817 46-501): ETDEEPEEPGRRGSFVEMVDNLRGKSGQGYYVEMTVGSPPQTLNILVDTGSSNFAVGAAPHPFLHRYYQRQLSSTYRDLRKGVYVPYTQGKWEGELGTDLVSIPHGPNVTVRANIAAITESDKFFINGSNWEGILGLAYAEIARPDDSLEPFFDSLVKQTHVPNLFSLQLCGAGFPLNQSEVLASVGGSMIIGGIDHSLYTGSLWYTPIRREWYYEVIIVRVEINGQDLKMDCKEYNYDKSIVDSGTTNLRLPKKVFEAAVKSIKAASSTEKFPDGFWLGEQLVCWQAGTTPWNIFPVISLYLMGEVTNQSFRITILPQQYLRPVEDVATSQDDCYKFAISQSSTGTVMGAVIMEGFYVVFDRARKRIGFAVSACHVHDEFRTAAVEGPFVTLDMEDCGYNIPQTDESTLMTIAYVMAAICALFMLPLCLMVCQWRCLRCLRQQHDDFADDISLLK
row,Compound,Ki [µM]
1,"N3-((2S,3R)-3-hydroxy-4-(3-methoxybenzylamino)-1-phenylbutan-2-yl)-N1,4-dimethyl-N1-((4-methylthiazol-2-yl)methyl)isophthalamide and N1-((2S,3R)-3-hydroxy-4-(3-methoxybenzylamino)-1-phenylbutan-2-yl)-N3,4-dimethyl-N3-((4-methylthiazol-2-yl)methyl)isophthalamide (regioisomeric mixture) [Compound 42]",> 0.501

# Same assay, conditions: memapsin 2, pH 4, 37° C., fluorogenic substrate FS-2; read-out: M2Ki
row,Compound,Ki [µM]
1,"Cc1csc(CN(C)C(=O)c2cc(C(=O)N[C@@H](Cc3ccccc3)[C@H](O)CNCc3cccc(C(F)(F)F)c3)cc(-c3ccco3)c2)n1 [Compound 305, 5-(furan-2-yl)-N1-((2S,3R)-3-hydroxy-1-phenyl-4-(3-(trifluoromethyl)benzylamino)butan-2-yl)-N3-methyl-N3-((4-methylthiazol-2-yl)methyl)isophthalamide]",< 0.3
2,"COc1cccc(CNC[C@@H](O)[C@H](Cc2cc(F)cc(F)c2)NC(=O)c2cc(C(C)=O)cc(C(=O)N[C@H](C)c3ccccc3)c2)c1 [Compound 306, 5-acetyl-N1-((2S,3R)-1-(3,5-difluorophenyl)-3-hydroxy-4-(3-methoxybenzylamino)butan-2-yl)-N3-((R)-1-phenylethyl)isophthalamide]",< 0.3
3,"COc1cccc(CNC[C@@H](O)[C@H](Cc2ccccc2)NC(=O)c2cc(C(=O)N(C)Cc3nc(C)cs3)cc(C3CCC(O)C3)c2)c1 (stereo partly drawn) [Compound 307, N1-((2S,3R)-3-hydroxy-4-(3-methoxybenzylamino)-1-phenylbutan-2-yl)-5-(3-hydroxycyclopentyl)-N3-methyl-N3-((4-methylthiazol-2-yl)methyl)isophthalamide]",> 0.501
4,"CC(=O)c1cc(C(=O)N[C@@H](Cc2ccccc2)[C@H](O)CNCc2cncc(C(C)C)c2)cc(C(=O)N[C@H](C)c2ccccc2)c1 [Compound 308, 5-acetyl-N1-((2S,3R)-3-hydroxy-4-((5-isopropylpyridin-3-yl)methylamino)-1-phenylbutan-2-yl)-N3-((R)-1-phenylethyl)isophthalamide]",< 0.3
5,"COc1cccc(S(=O)(=O)NC[C@@H](O)[C@H](Cc2ccccc2)NC(=O)c2cccc(C(=O)N(C)Cc3nc(C)cs3)c2)c1 [Compound 309, N1-((2S,3R)-3-hydroxy-4-(3-methoxyphenylsulfonamido)-1-phenylbutan-2-yl)-N3-methyl-N3-((4-methylthiazol-2-yl)methyl)isophthalamide]",> 0.501
6,"Cc1csc(CN(C)C(=O)c2cccc(C(=O)N[C@@H](Cc3ccccc3)[C@H](O)CNS(=O)(=O)c3cccc(C(F)(F)F)c3)c2)n1 [Compound 310, N1-((2S,3R)-3-hydroxy-1-phenyl-4-(3-(trifluoromethyl)phenylsulfonamido)butan-2-yl)-N3-methyl-N3-((4-methylthiazol-2-yl)methyl)isophthalamide]",> 0.501
7,"Cc1csc(CN(C)C(=O)c2cccc(C(=O)N[C@@H](Cc3ccccc3)[C@H](O)CNCc3cc(OC(=O)CN(C)C)cc(C(C)C)c3)c2)n1 [Compound 311, 3-(((2R,3S)-2-hydroxy-3-(3-(methyl((4-methylthiazol-2-yl)methyl)carbamoyl)benzamido)-4-phenylbutylamino)methyl)-5-isopropylphenyl 2-(dimethylamino)acetate]",< 0.3
8,"Cc1csc(CN(C)C(=O)c2cccc(C(=O)N[C@@H](Cc3ccccc3)[C@H](O)CN(C)Cc3cncc(C(C)C)c3)c2)n1 [Compound 312, N1-((2S,3R)-3-hydroxy-4-(((5-isopropylpyridin-3-yl)methyl)(methyl)amino)-1-phenylbutan-2-yl)-N3-methyl-N3-((4-methylthiazol-2-yl)methyl)isophthalamide]",> 0.501
9,"Cc1csc(CN(C)C(=O)c2cccc(C(=O)N[C@@H](Cc3ccccc3)[C@H](O)CNCc3cncc(C(C)CO)c3)c2)n1 (stereo partly drawn) [Compound 313, N1-((2S,3R)-3-hydroxy-4-((5-(1-hydroxypropan-2-yl)pyridin-3-yl)methylamino)-1-phenylbutan-2-yl)-N3-methyl-N3-((4-methylthiazol-2-yl)methyl)isophthalamide]",< 0.3
10,"Cc1csc(CN(C)C(=O)c2cccc(C(=O)N[C@@H](Cc3ccccc3)[C@H](O)CNCc3cncc(C(C)CO)c3)c2)n1 (stereo partly drawn) [Compound 314, N1-((2S,3R)-3-hydroxy-4-((5-(1-hydroxypropan-2-yl)pyridin-3-yl)methylamino)-1-phenylbutan-2-yl)-N3-methyl-N3-((4-methylthiazol-2-yl)methyl)isophthalamide]",< 0.3
11,"CC(C)c1cncc(CNC[C@@H](O)[C@H](Cc2ccccc2)NC(=O)c2cccc(C(=O)N(C)Cc3nc(Br)cs3)c2)c1 [Compound 315, N1-((4-bromothiazol-2-yl)methyl)-N3-((2S,3R)-3-hydroxy-4-((5-isopropylpyridin-3-yl)methylamino)-1-phenylbutan-2-yl)-N1-methylisophthalamide]",< 0.3
12,"CC(C)c1cncc(CNC[C@@H](O)[C@H](Cc2ccccc2)NC(=O)c2cccc(C(=O)N(C)Cc3nc(CO)cs3)c2)c1 [Compound 316, N1-((2S,3R)-3-hydroxy-4-((5-isopropylpyridin-3-yl)methylamino)-1-phenylbutan-2-yl)-N3-((4-(hydroxymethyl)thiazol-2-yl)methyl)-N3-methylisophthalamide]",< 0.3
13,"Cc1csc(CN(C)C(=O)c2cc(C(=O)N[C@@H](Cc3ccccc3)[C@H](O)CNCc3cccc(C(F)(F)F)c3)cc(-c3cccc(N(C)C(=O)OC(C)(C)C)c3)c2)n1 [Compound 317, tert-butyl 3′-((2S,3R)-3-hydroxy-1-phenyl-4-(3-(trifluoromethyl)benzylamino)butan-2-ylcarbamoyl)-5′-(methyl((4-methylthiazol-2-yl)methyl)carbamoyl)biphenyl-3-yl(methyl)carbamate]",< 0.3
14,"CC(C)c1cncc(CNC[C@@H](O)[C@H](Cc2ccccc2)NC(=O)c2cccc(C(=O)N(C)Cc3nccs3)c2)c1 [Compound 318, N1-((2S,3R)-3-hydroxy-4-((5-isopropylpyridin-3-yl)methylamino)-1-phenylbutan-2-yl)-N3-methyl-N3-(thiazol-2-ylmethyl)isophthalamide]",< 0.3
15,"C=C(C)c1cncc(CNC[C@@H](O)[C@H](Cc2ccccc2)NC(=O)c2cccc(C(=O)N(C)Cc3nc(CO)cs3)c2)c1 [Compound 319, N1-((2S,3R)-3-hydroxy-1-phenyl-4-((5-(prop-1-en-2-yl)pyridin-3-yl)methylamino)butan-2-yl)-N3-((4-(hydroxymethyl)thiazol-2-yl)methyl)-N3-methylisophthalamide]",< 0.3
16,"CCn1cc(CNC[C@@H](O)[C@H](Cc2ccccc2)NC(=O)c2cccc(C(=O)N(C)Cc3nc(C)cs3)c2)cn1 [Compound 320, N1-((2S,3R)-4-((1-ethyl-1H-pyrazol-4-yl)methylamino)-3-hydroxy-1-phenylbutan-2-yl)-N3-methyl-N3-((4-methylthiazol-2-yl)methyl)isophthalamide]",< 0.3
